Data as given in the supplement of paper PMC10307832.

How the values were obtained:
Assay in all cases: relative viability (nuclei count vs DMSO), 5 days (fraction); higher = more cells survive
[1] = compound: Cn1cncc1[C@@](N)(c1ccc(Cl)cc1)c1ccc2c(c1)c(-c1cccc(Cl)c1)cc(=O)n2C [Tipifarnib] + Nc1nc2[nH]cc(CCc3ccc(C(=O)N[C@@H](CCC(=O)O)C(=O)O)cc3)c2c(=O)[nH]1 [Pemetrexed] (partner 0.2 µM)
How it was run: (§1)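 After 5 days of treatment, lung cancer cells in 1536-well plates were fixed and stained in a single step (final 0.05% Triton X-100, 1% formaldehyde, 1 ug/ml Hoechst) and their nuclei counted on 4× images. Treatment had been applied by pin tool the day after seeding as one drug alone or as a fixed anchor-drug dose with five library-drug doses (not always all listed) in √10 steps. Relative viability is the nuclei count of treated wells divided by that of vehicle wells, and values are medians of duplicate plates.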

[2] = compound: Cn1cncc1[C@@](N)(c1ccc(Cl)cc1)c1ccc2c(c1)c(-c1cccc(Cl)c1)cc(=O)n2C [Tipifarnib] + COc1cccc2cc(-c3nc([C@H]4CC[C@H](C(=O)O)CC4)n4ncnc(N)c34)[nH]c12 [OSI-027] (partner 0.5 µM)
How it was run: as §1

[3] = compound: Cn1cncc1[C@@](N)(c1ccc(Cl)cc1)c1ccc2c(c1)c(-c1cccc(Cl)c1)cc(=O)n2C [Tipifarnib] + COc1cc2c(Oc3ccc(NC(=O)C4(C(=O)Nc5ccc(F)cc5)CC4)cc3F)ccnc2cc1OCCCN1CCOCC1 [Foretinib] (partner 0.25 µM)
How it was run: as §1

[4] = compound: Cn1cncc1[C@@](N)(c1ccc(Cl)cc1)c1ccc2c(c1)c(-c1cccc(Cl)c1)cc(=O)n2C [Tipifarnib] + NC(=O)Nc1cc(-c2cccc(F)c2)sc1C(=O)N[C@H]1CCCNC1 [AZD7762] (partner 0.2 µM)
How it was run: as §1

| Cell Line | relative viability ([1]; first compound 0.01 µM) | relative viability ([1]; first compound 0.03162 µM) | relative viability ([1]; first compound 0.1 µM) | relative viability ([1]; first compound 0.3162 µM) | relative viability ([1]; first compound 1 µM) | relative viability ([2]; first compound 0.01 µM) | relative viability ([2]; first compound 0.03162 µM) | relative viability ([2]; first compound 0.1 µM) | relative viability ([2]; first compound 0.3162 µM) | relative viability ([2]; first compound 1 µM) | relative viability ([3]; first compound 0.01 µM) | relative viability ([3]; first compound 0.03162 µM) | relative viability ([3]; first compound 0.1 µM) | relative viability ([3]; first compound 0.3162 µM) | relative viability ([3]; first compound 1 µM) | relative viability ([4]; first compound 0.01 µM) | relative viability ([4]; first compound 0.03162 µM) | relative viability ([4]; first compound 0.1 µM) | relative viability ([4]; first compound 0.3162 µM) | relative viability ([4]; first compound 1 µM) |
| --- | --- | --- | --- | --- | --- | --- | --- | --- | --- | --- | --- | --- | --- | --- | --- | --- | --- | --- | --- | --- |
| UMC-11 | 0.578 | 0.65 | 0.499 | 0.46 | 0.424 | 0.432 | 0.359 | 0.348 | 0.301 | 0.343 | 0.856 | 0.725 | 0.612 | 0.616 | 0.578 | – | – | – | – | – |
| NCI-H1650 | 0.427 | 0.379 | 0.329 | 0.271 | 0.278 | 0.407 | 0.17 | 0.305 | 0.26 | 0.196 | 0.766 | 0.633 | 0.668 | 0.424 | 0.554 | – | – | – | – | – |
| EBC-1 | – | – | – | – | – | – | – | – | – | – | 0.103 | 0.0929 | 0.0996 | 0.113 | 0.0971 | – | – | – | – | – |
| SK-LU-1 | 0.961 | 0.931 | 0.723 | 0.63 | 0.5 | 0.324 | 0.286 | 0.293 | 0.222 | 0.181 | 0.877 | 0.723 | 0.542 | 0.481 | 0.477 | – | – | – | – | – |
| SK-MES-1 | 0.975 | 0.919 | 0.924 | 0.773 | 0.648 | 0.642 | 0.453 | 0.354 | 0.265 | 0.332 | 0.916 | 0.869 | 0.905 | 0.681 | 0.542 | – | – | – | – | – |
| NCI-H1792 | 0.681 | 0.332 | 0.416 | 0.157 | 0.118 | 0.9 | 0.76 | 0.548 | 0.32 | 0.357 | – | – | – | – | – | 0.722 | 0.417 | 0.373 | 0.237 | 0.173 |
| SW 1573 | 0.781 | 0.719 | 0.458 | 0.383 | 0.245 | 0.583 | 0.244 | 0.292 | 0.238 | 0.17 | 1.12 | 0.873 | 0.657 | 0.498 | 0.173 | – | – | – | – | – |
| A549 | – | – | – | – | – | – | – | – | – | – | 1.03 | 0.843 | 0.386 | 0.296 | 0.366 | – | – | – | – | – |
| NCI-H1703 | – | – | – | – | – | – | – | – | – | – | 0.343 | 0.247 | 0.325 | 0.267 | 0.294 | 0.139 | 0.111 | 0.125 | 0.0872 | 0.14 |
| NCI-H520 | 0.726 | 0.652 | 0.574 | 0.511 | 0.528 | 0.214 | 0.262 | 0.187 | 0.19 | 0.199 | 0.978 | 0.614 | 0.681 | 0.506 | 0.351 | – | – | – | – | – |
| NCI-H1563 | 0.731 | 0.799 | 0.777 | 0.655 | 0.665 | 0.725 | 0.777 | 0.721 | 0.641 | 0.62 | 1.03 | 1.04 | 0.879 | 0.82 | 0.87 | – | – | – | – | – |
| NCI-H2009 | 0.979 | 0.999 | 0.7 | 0.658 | 0.694 | 0.659 | 0.362 | 0.335 | 0.299 | 0.245 | 1.3 | 1.11 | 0.84 | 0.645 | 0.7 | – | – | – | – | – |
